{"source": "ChEMBL document CHEMBL2321873", "about": "“1-(4-Phenylpiperazin-1-yl)-2-(1H-pyrazol-1-yl)ethanones as novel CCR1 antagonists” (Bioorg Med Chem Lett, 2013)", "key": {"[1]": {"target": "C-X-C chemokine receptor type 6 (Homo sapiens) (UniProt O00574)", "sequence (O00574 whole entry, looked up)": "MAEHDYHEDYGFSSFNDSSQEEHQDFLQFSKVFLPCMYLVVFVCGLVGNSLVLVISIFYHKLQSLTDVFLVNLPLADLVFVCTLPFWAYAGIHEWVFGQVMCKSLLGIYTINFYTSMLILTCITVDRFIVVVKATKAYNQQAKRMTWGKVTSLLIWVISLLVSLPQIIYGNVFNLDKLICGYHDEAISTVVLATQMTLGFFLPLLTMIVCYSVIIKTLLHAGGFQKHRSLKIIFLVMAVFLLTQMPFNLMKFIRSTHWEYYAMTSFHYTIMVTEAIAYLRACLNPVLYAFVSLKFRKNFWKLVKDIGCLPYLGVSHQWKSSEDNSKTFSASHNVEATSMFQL", "test": "Binding affinity to CXCR6 (unknown origin) at 10 uM by radioligand displacement assay"}, "[2]": {"target": "T1, Atypical chemokine receptor 1 (Homo sapiens) (UniProt Q16570)", "T1 sequence (whole entry)": "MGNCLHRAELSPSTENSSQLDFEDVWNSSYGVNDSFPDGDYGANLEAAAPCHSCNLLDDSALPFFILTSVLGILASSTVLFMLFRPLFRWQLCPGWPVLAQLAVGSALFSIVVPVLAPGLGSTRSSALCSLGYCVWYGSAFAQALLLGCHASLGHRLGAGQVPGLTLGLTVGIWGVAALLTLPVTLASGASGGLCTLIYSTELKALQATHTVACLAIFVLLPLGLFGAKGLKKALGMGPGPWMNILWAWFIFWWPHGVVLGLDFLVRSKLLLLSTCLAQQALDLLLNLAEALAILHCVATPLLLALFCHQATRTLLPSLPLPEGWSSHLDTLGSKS", "test": "Antagonist activity at Duffy (unknown origin) assessed as inhibition of calcium flux at 10 uM", "assay_type": "functional"}, "[3]": {"target": "T2, C-C chemokine receptor type 7 (Homo sapiens) (UniProt P32248)", "T2 sequence (whole entry)": "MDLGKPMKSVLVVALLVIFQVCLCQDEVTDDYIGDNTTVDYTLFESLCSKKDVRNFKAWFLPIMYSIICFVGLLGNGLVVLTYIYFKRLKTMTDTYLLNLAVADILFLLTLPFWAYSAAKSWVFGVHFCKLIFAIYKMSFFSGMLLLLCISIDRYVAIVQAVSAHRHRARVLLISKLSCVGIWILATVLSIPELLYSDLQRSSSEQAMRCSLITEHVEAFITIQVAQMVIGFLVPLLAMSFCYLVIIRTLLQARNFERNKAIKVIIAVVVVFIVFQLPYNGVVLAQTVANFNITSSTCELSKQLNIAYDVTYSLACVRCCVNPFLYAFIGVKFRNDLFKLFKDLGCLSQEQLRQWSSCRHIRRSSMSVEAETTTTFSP", "test": "Antagonist activity at CCR7 (unknown origin) assessed as inhibition of calcium flux at 10 uM", "assay_type": "functional"}, "[4]": {"target": "Cytochrome P450 2C19 (Homo sapiens, UniProt P33261)", "sequence (P33261 whole entry)": "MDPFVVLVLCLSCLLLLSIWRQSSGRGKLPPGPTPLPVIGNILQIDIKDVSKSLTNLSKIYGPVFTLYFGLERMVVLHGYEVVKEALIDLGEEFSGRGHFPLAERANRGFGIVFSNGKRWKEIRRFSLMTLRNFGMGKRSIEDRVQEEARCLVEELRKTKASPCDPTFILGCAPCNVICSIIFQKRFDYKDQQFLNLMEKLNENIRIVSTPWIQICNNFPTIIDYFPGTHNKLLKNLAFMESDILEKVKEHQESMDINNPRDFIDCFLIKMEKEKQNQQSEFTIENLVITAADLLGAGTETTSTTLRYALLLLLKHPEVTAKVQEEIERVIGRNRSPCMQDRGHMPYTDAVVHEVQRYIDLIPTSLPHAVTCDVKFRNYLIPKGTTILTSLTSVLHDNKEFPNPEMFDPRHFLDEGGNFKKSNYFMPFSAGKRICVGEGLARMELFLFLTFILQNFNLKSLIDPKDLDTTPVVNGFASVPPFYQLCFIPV", "test": "Inhibition of CYP2C19 (unknown origin)", "assay_type": "ADME"}, "[5]": {"target": "C-C chemokine receptor type 5 (Homo sapiens) (UniProt P51681)", "sequence (P51681 whole entry, looked up)": "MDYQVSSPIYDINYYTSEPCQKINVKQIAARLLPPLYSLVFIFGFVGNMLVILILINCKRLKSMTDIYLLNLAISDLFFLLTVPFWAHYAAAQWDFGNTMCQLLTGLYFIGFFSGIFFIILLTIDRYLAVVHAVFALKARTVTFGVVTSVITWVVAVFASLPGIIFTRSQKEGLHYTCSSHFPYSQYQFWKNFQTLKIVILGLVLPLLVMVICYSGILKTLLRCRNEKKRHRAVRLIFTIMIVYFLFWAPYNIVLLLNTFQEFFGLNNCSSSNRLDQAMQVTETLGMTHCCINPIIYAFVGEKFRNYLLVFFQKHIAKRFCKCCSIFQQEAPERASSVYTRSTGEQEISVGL", "test": "Antagonist activity at CCR5 (unknown origin) assessed as inhibition of calcium flux at 10 uM", "assay_type": "functional"}, "[6]": {"target": "T3, C-X-C chemokine receptor type 3 (Homo sapiens) (UniProt P49682)", "T3 sequence (whole entry)": "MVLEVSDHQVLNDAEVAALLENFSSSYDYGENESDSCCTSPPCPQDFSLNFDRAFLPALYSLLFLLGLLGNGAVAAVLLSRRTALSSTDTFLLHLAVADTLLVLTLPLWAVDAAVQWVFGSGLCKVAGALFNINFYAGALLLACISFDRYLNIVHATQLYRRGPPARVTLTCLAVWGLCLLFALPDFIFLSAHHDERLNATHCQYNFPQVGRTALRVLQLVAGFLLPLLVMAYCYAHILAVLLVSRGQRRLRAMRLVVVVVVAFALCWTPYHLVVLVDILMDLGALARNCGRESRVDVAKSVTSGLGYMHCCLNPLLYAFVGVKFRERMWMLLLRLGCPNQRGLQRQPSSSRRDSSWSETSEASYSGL", "test": "Binding affinity to CXCR3 (unknown origin) at 10 uM by radioligand displacement assay"}, "[7]": {"target": "C-X-C chemokine receptor type 4 (Homo sapiens) (UniProt P61073)", "sequence (P61073 whole entry)": "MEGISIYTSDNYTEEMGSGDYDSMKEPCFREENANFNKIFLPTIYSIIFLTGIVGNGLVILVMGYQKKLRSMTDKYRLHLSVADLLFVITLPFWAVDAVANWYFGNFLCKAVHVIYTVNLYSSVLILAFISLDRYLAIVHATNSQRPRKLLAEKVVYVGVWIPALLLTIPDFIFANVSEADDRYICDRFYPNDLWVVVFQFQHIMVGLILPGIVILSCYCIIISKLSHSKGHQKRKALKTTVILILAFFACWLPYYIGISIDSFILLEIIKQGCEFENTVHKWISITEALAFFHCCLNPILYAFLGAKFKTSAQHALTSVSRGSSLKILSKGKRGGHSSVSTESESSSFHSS", "test": "Binding affinity to CXCR4 (unknown origin) at 10 uM by radioligand displacement assay"}, "[8]": {"target": "T4, CX3C chemokine receptor 1 (Homo sapiens) (UniProt P49238)", "T4 sequence (whole entry)": "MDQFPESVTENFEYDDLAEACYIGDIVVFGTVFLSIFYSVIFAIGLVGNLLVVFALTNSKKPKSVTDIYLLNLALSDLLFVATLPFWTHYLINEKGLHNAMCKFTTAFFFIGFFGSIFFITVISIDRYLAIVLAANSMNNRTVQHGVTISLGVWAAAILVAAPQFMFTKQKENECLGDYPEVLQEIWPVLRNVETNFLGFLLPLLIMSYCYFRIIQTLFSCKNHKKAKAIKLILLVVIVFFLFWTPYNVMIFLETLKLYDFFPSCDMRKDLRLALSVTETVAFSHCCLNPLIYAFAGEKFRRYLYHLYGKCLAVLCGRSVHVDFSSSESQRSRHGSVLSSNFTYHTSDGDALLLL", "test": "Antagonist activity at CX3CR1 (unknown origin) assessed as inhibition of calcium flux at 10 uM", "assay_type": "functional"}, "[9]": {"target": "T5, C-C chemokine receptor type 3 (Homo sapiens) (UniProt P51677)", "T5 sequence (whole entry)": "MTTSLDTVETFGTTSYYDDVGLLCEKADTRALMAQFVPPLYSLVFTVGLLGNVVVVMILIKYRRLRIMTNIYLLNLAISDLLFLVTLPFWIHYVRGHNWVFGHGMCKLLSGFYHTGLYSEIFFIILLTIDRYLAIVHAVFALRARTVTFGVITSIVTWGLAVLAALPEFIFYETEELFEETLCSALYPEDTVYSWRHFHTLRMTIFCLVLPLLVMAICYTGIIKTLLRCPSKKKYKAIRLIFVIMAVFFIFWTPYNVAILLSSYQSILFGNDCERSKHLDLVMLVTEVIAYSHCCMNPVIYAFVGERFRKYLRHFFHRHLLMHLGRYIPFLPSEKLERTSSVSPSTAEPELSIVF", "test": "Antagonist activity at CCR3 (unknown origin) assessed as inhibition of chemotaxis at 10 uM"}, "[10]": {"test_system": "Cytomegalovirus", "test": "Antagonist activity at CMV US28 assessed as inhibition of chemotaxis at 10 uM"}, "[11]": {"test_system": "Rattus norvegicus", "test": "Toxicity in Sprague-Dawley rat assessed as necropsy at 70 to 360 mg/kg, po after 7 days", "assay_type": "organism-based", "parameters": "dose 70-360 mg/kg, route oral", "conditions": "in vivo, 168 h"}, "[12]": {"test": "Oral bioavailability in Beagle dog at 5 mg/kg", "assay_type": "ADME, organism-based, Canis lupus familiaris", "conditions": "in vivo"}, "[13]": {"target": "T6, C-C chemokine receptor-like 2 (Homo sapiens) (UniProt O00421)", "T6 sequence (whole entry)": "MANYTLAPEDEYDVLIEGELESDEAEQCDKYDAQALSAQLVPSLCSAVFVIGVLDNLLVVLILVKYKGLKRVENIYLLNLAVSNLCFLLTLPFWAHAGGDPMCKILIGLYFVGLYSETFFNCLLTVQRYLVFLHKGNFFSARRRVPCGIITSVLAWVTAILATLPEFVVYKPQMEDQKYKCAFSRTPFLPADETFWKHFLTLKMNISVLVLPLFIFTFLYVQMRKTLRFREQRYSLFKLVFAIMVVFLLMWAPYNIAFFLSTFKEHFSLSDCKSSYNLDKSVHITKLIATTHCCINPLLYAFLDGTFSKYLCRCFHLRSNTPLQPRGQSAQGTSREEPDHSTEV", "test": "Binding affinity to CCR11 (unknown origin) at 10 uM by radioligand displacement assay"}, "[14]": {"target": "C-C chemokine receptor type 2 (Homo sapiens) (UniProt P41597)", "sequence (P41597 whole entry, looked up)": "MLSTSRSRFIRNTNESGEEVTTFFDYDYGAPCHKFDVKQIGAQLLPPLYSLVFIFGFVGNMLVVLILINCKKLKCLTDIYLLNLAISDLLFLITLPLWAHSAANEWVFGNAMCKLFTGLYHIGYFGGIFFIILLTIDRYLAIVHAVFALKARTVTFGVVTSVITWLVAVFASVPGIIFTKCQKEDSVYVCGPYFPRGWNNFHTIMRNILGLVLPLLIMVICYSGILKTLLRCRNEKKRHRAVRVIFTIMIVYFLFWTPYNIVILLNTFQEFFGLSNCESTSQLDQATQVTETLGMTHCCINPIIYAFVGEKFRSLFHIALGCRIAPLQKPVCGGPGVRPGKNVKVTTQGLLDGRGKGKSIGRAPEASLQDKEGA", "test": "Binding affinity to CCR2 (unknown origin) at 10 uM by radioligand displacement assay"}, "[15]": {"test": "Plasma clearance in Sprague-Dawley rat at 1 mg/kg, iv", "assay_type": "ADME, organism-based", "parameters": "dose 1 mg/kg, route intravenous"}}, "note": "Active and inactive are the calls of the source. No cut-off for these calls is given here."}
{"molecule": "COc1cc(N2CCN(C(=O)Cn3nc(C(F)(F)F)c(Cl)c3C)CC2)ccc1Cl", "values": [{"measurement": "Activity", "setting": "[1]", "result": "inactive"}, {"measurement": "inhibition", "setting": "[2]", "result": "inactive"}, {"measurement": "inhibition", "setting": "[3]", "result": "inactive"}, {"measurement": "IC50", "setting": "[4]", "result": 6, "unit": "µM"}, {"measurement": "inhibition", "setting": "[5]", "result": "inactive"}, {"measurement": "Activity", "setting": "[6]", "result": "inactive"}, {"measurement": "Activity", "setting": "[7]", "result": "inactive"}, {"measurement": "inhibition", "setting": "[8]", "result": "inactive"}, {"measurement": "inhibition", "setting": "[9]", "result": "inactive"}, {"measurement": "inhibition", "setting": "[10]", "result": "inactive"}, {"measurement": "Activity", "setting": "[11]", "result": "Non-toxic"}, {"measurement": "bioavailability", "setting": "[12]", "result": 20, "unit": "%"}, {"measurement": "Activity", "setting": "[13]", "result": "inactive"}, {"measurement": "Activity", "setting": "[14]", "result": "inactive"}, {"measurement": "clearance", "setting": "[15]", "result": 20, "unit": "mL/min/kg"}]}
